Experimental data published in patent publication US9630914B2, “Multitarget FAAH and COX inhibitors and therapeutical uses thereof” (FONDAZIONE ISTITUTO ITALIANO DI TECNOLOGIA, priority 2012, dated 2017).
Where two headings read alike, the source gives them in different places.

Tests used:
Format in all cases: biochemical
[1] = biological target: Rat FAAH (Rattus norvegicus (Rat), UniProt P97612); experiment: In vitro rat FAAH radiometric assay; settings: rat brain homogenate; means of ≧3 experiments in duplicate
Description: In Vitro Rat FAAH Radiometric Assay
Rat FAAH was prepared from male Sprague Dawley rat brains, homogenized in a potter in 20 mM of Tris HCl pH 7.4, 0.32 M sucrose.
After 10 minutes of pre-incubation with test compounds, the reaction was started by adding of 50 μL of substrate and incubating for 30 min at 37° C. The substrate was prepared in assay buffer in order to achieve the final concentration of 1 μM arachidonoyl ethanolamide (Cayman Chemical N. 90050) and 0.6 nM anandamide [ethanolamine-1-^3H](American Radiolabeled Chemicals Inc., ART. 0626, conc. 1 mCi/mL, S.A. 60 Ci/mmol). The reaction was stopped by adding cold 1:1 CHCl3/MeOH. After 10 minutes of centrifugation (845×g at 4° C.) 600 μL of aqueous phase were transferred into scintillation vials previously filled with 3 mL of scintillation fluid (Ultima Gold™, Perkin Elmer Inc., Cat. 6013329). Radioactivity was measured by liquid scintillation counting (MicroBeta2 LumiJET Perkin Elmer Inc.).
(§1) The median inhibitory concentrations (IC50) were determined by non-linear regression analysis of the Log [concentration]/response curves generated with mean replicate values using a four parameter Hill equation curve fitting with GraphPad Prism 5 (GraphPad Software Inc., CA-USA).

[2] = biological target: human FAAH-1 (Homo sapiens (Human), UniProt O00519); experiment: In vitro human FAAH fluorescent assay; settings: human FAAH-1 membrane preparation from HEK-293; means of ≧3 experiments
Description: In Vitro Human FAAH Fluorescent Assay
Human recombinant FAAH was obtained from a HEK-293 FAAH-1 overexpressing stable cell line. Cells were grown in DMEM medium containing 10% FBS, 1% pen/strep, 1% glutamine and 500 μg/mL G418. To obtain membrane preparation cells were scraped off with cold phosphate-buffered saline (PBS) and collected by centrifugation (500×g, 10 minutes, 4° C.); the cell pellet was re-suspended in 20 mM Tris-HCl pH 7.4, 0.32 M sucrose, disrupted by sonication (10 pulses, 5 times) and centrifuged (800×g, 15 minutes, 4° C.); the collected supernatant was centrifuged at 105,000×g for 1 h at 4° C. and the pellet was re-suspended in PBS.
The background (no activity) samples were prepared using 180 μL of assay buffer without human FAAH-1 and 10 μL of DMSO. The reaction was then started by the addition of 10 μL of substrate (AMC arachidonyl amide, N. 10005098, Cayman Chemical) dissolved in ethanol and used at a final concentration of 2 μM. The reaction was carried out for 30 minutes at 37° C. and fluorescence was measured with a Tecan Infinite M200 nanoquant plate reader (excitation wavelength 350 nm/emission wavelength 460 nm).
as §1

[3] = biological target: ovine COX-1 (Ovis aries (Sheep), UniProt P05979); experiment: In vitro COX assay (COX Inhibitor Screening Assay Kit), COX-1; settings: 5 μM arachidonic acid
Description: (§2) COX activity was measured using a commercial kit (COX Inhibitor Screening Assay Kit—Cayman Chemical N. 560131) which includes both ovine COX-1 and human recombinant COX-2 enzymes. Inhibitors were pre-incubated with either ovine COX-1 or human COX-2 in order to screen isozyme-specific inhibition. Differently than described in the kit protocol, the reaction was carried out in the presence of 5 μM arachidonic acid while for the blank sample (no activity) the two enzymes were inactivated for 40 minutes at 100° C. It was then measured the amount of PGF2α produced by reduction with SnCl2 of COX-derived PGH2, via enzyme immunoassay (EIA) using a PG-specific antibody and competing with a PG-acetylcholinesterase conjugate.
(§3) Absorbance was measured at 412 nm with a Tecan Infinite M200 plate reader and data were processed according to manufacturer's instructions.
as §1

[4] = biological target: human recombinant COX-2 (Homo sapiens (Human), UniProt P35354); experiment: In vitro COX assay (COX Inhibitor Screening Assay Kit), COX-2
Description: as §2, §3, §1

[5] = 5 μM arachidonic acid, read-out: human COX-2 IC50

Sequence of human recombinant COX-2 (P35354 18-604): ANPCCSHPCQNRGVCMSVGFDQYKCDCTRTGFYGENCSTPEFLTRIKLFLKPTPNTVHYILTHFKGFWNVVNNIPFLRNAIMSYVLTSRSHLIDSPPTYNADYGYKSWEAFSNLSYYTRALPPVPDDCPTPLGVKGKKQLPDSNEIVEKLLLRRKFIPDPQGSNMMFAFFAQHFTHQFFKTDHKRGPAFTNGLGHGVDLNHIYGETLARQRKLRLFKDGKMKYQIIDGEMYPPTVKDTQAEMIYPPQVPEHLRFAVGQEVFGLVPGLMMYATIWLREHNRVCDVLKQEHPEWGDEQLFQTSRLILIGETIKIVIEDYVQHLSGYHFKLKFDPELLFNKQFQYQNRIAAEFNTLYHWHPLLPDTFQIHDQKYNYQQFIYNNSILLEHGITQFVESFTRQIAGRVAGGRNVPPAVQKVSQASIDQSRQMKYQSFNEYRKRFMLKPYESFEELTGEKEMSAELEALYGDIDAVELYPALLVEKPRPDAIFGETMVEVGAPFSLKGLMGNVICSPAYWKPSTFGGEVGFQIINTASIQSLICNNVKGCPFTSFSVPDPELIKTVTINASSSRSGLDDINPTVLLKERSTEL
Sequence of Rat FAAH (P97612 whole entry): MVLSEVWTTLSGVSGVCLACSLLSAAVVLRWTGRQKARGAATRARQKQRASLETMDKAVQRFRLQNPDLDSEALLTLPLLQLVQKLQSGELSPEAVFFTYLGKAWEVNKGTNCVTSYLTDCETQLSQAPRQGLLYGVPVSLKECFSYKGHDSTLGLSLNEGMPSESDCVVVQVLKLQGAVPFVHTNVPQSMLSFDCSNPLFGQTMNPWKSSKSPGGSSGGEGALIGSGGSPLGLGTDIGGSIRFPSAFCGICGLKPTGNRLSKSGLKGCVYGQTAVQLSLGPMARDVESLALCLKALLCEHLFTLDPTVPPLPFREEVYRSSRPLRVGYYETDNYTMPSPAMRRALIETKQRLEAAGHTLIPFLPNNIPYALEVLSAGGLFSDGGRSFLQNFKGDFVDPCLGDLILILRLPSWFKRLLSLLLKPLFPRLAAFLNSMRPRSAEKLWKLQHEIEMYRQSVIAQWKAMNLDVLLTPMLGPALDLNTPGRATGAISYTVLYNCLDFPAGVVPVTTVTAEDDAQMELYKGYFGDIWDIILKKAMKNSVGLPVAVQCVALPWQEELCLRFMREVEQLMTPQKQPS
Sequence of ovine COX-1 (P05979 25-600): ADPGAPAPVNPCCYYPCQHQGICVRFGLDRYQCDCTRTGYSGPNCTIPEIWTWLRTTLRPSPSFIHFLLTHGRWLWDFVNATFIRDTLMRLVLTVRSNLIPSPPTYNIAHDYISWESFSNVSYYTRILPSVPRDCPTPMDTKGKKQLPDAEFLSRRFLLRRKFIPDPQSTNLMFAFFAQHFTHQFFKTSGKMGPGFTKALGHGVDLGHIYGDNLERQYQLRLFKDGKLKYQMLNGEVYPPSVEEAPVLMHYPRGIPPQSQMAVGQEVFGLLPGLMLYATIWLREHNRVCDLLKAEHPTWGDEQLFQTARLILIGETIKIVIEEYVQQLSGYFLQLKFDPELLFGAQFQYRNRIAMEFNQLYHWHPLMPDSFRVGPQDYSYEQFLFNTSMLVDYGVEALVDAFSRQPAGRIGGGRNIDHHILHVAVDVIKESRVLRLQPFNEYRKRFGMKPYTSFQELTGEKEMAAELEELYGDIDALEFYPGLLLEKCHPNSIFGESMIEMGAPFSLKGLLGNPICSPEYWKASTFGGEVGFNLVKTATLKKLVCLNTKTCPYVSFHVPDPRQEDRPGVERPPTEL
Sequence of human FAAH-1 (O00519 whole entry): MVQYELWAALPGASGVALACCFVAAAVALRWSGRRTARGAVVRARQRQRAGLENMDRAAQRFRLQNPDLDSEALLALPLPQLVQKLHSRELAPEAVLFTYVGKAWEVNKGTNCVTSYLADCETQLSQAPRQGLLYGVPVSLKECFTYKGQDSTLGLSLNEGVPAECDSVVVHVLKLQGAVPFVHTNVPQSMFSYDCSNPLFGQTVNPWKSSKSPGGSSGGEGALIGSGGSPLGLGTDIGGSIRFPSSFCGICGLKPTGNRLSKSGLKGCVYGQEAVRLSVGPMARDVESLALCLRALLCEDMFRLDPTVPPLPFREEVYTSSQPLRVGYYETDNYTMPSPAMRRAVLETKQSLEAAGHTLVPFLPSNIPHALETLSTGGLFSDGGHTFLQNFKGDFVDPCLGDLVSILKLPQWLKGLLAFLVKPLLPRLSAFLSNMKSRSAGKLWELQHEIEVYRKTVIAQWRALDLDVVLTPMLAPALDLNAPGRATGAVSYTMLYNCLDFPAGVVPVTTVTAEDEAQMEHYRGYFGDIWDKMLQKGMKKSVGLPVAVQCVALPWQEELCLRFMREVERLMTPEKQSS

SMILES	IC50 [1]	IC50 [2]	IC50 [3]	IC50 [4]	IC50 [4, 5]
CC(C(=O)O)c1ccc(-c2cccc(OC(=O)NC3CCCCC3)c2)c(F)c1 (centres unmarked) [Example 1, 2-[4-[3-(cyclohexylcarbamoyloxy)phenyl]-3-fluoro-phenyl]propanoic acid]	8200 nM	1800 nM	7900 nM	> 30 µM	–
CC(C(=O)O)c1ccc(-c2cccc(OC(=O)NCC3CCCCC3)c2)c(F)c1 (centres unmarked) [Example 4, 2-[4-[3-(cyclohexylmethylcarbamoyloxy)phenyl]-3-fluoro-phenyl]propanoic acid]	360 nM	280 nM	600 nM	> 30 µM	–
CCCCNC(=O)Oc1cccc(-c2ccc(C(C)C(=O)O)cc2F)c1 (centres unmarked) [Example 10, 2-[4-[3-(butylcarbamoyloxy)phenyl]-3-fluoro-phenyl]propanoic acid]	7000 nM	1500 nM	260 nM	> 30 µM	–
CC(C(=O)O)c1ccc(-c2cccc(OC(=O)NCCc3ccccc3)c2)c(F)c1 (centres unmarked) [Example 7, 2-[3-fluoro-4-[3-(phenethylcarbamoyloxy)phenyl]phenyl]propanoic acid]	170 nM	70 nM	6300 nM	> 30 µM	–
CC(C(=O)O)c1ccc(-c2cccc(OC(=O)NCc3ccccc3)c2)c(F)c1 (centres unmarked) [Example 6, 2-[4-[3-(benzylcarbamoyloxy)phenyl]-3-fluoro-phenyl]propanoicacid]	4200 nM	7200 nM	1300 nM	> 30 µM	–
CC(C(=O)O)c1ccc(-c2cccc(OC(=O)NCCC3CCCCC3)c2)c(F)c1 (centres unmarked) [Example 5, 2-[4-[3-(2-cyclohexylethylcarbamoyloxyl)phenyl]-3-fluoro-phenyl]propanoic acid]	18 nM	9 nM	150 nM	–	11 µM
CCCCCCNC(=O)Oc1cccc(-c2ccc(C(C)CO)cc2F)c1 (centres unmarked) [Example 15, [3-[2-fluoro-4-(2-hydroxy-1-methyl-ethyl)phenyl]phenyl]N-hexylcarbamate]	3.3 nM	9.1 nM	1100 nM	> 30 µM	–
CC(C(=O)O)c1ccc(-c2cccc(OC(=O)NC3CCCC3)c2)c(F)c1 (centres unmarked) [Example 2, 2-[4-[3-(cyclopentylcarbamoyloxy)phenyl]-3-fluoro-phenyl]propanoic acid]	4800 nM	1800 nM	4400 nM	> 30 µM	–
CC(C(=O)O)c1ccc(-c2cccc(OC(=O)NCCCc3ccccc3)c2)c(F)c1 (centres unmarked) [Example 8, 2-[3-fluoro-4-[3-(3-phenylpropylcarbamoyloxyl)phenyl]phenyl]propanoic acid]	90 nM	22 nM	580 nM	–	6.2 µM
CC(C)CNC(=O)Oc1cccc(-c2ccc(C(C)C(=O)O)cc2F)c1 (centres unmarked) [Example 3, 2-[3-fluoro-4-[3-(isobutylcarbamoyloxy)phenyl]phenyl]propanoic acid]	5600 nM	1600 nM	8200 nM	> 30 µM	–
CCCCCCNC(=O)Oc1cccc(-c2ccc(C(C)C(=O)O)cc2F)c1 (single isomer, unassigned; (+)) [Example 20, (+)-2-[3-fluoro-4-[3-(hexylcarbamoyloxy)phenyl]phenyl]propanoic acid]	–	–	0.01 nM	–	–
CC(C(=O)O)c1ccc(-c2cccc(OC(=O)NCCCCc3ccccc3)c2)c(F)c1 (centres unmarked) [Example 9, 2-[3-fluoro-4-[3-(4-phenylbutylcarbamoyloxyl)phenyl]phenyl]propanoic acid]	27 nM	13 nM	3700 nM	> 30 µM	–
CCCCCNC(=O)Oc1cccc(-c2ccc(C(C)C(=O)O)cc2F)c1 (centres unmarked) [Example 11, 2-[3-fluoro-4-[3-(pentylcarbamoyloxy)phenyl]phenyl]propanoic acid]	570 nM	92 nM	20 nM	–	0.16 µM
CCCCCCNC(=O)Oc1cccc(-c2ccc(C(C)C(=O)O)cc2F)c1 (single isomer, unassigned; (-)) [Example 19, (−)-2-[3-fluoro-4-[3-(hexylcarbamoyloxy)phenyl]phenyl]propanoic acid]	–	–	13000 nM	–	–
